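In this assay, cells in 96-well plates receive the compound at five concentrations for 48 hours. Endpoints are linearly interpolated between the surrounding concentrations. GI50 = concentration required for 50% inhibition of growth. TGI: total growth inhibition.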
Columns and labels:
Experiment in all cases: NCI anticancer screen, dose series, 48 h
[1] = system: DLD-1 colon
[2] = system: MALME-3M melanoma
[3] = system: COLO 205 colon
[4] = system: SK-MEL-28 melanoma
[5] = system: NCI-H460 lung
[6] = system: EKVX NSCLC
[7] = system: DMS 273 small cell lung
[8] = system: LXFL 529 NSCLC
[9] = system: M19-MEL melanoma
[10] = system: SNB-75 CNS
[11] = system: BT-549 breast
[12] = system: MDA-MB-231 breast

SMILES | TGI [1] | TGI [2] | TGI [3] | TGI [4] | TGI [5] | TGI [6] | TGI [7] | TGI [8] | TGI [9] | TGI [10] | TGI [11] | TGI [12] | GI50 [2] | GI50 [11] | GI50 [3] | GI50 [12] | GI50 [4] | GI50 [5] | GI50 [6] | GI50 [10]
COc1cc(/C=N/N=C(\N)NO)c([N+](=O)[O-])cc1OC | > 100 µM | > 100 µM | > 100 µM | > 100 µM | > 100 µM | > 100 µM | > 100 µM | > 100 µM | > 100 µM | 78.9 µM |  |  |  |  |  |  |  |  |  | 
CC1=NN2C(=N)/C(=C/c3ccc(F)cc3)C(=O)N=C2S1 |  | > 100 µM | > 100 µM | > 100 µM | > 100 µM | > 100 µM |  |  |  | > 100 µM | > 100 µM | > 100 µM |  |  |  |  |  |  |  | 
CC[C@]12C=CCN3CCC4(c5cc([C@@]6(C(=O)OC)CC7CN(CCc8c6[nH]c6ccccc86)CC6CCCCC67)c(OC)cc5N(C)C4[C@](O)(C(=O)OC)C1OC(C)=O)[C@@H]32 (stereo partly specified) | 13.2 µM | 7.05 µM | < 0.01 µM |  | 0.225 µM | 21.7 µM |  | 12.7 µM | 17.6 µM |  |  | 0.0655 µM |  |  |  |  |  |  |  | 
CSc1nc(Cl)c2c(n1)Sc1nc3ccccc3n1C2O (stereo unspecified) |  | > 67.3 µM | > 21.6 µM | > 100 µM | > 74.6 µM | > 100 µM |  |  |  | > 82.2 µM | > 84.4 µM | > 100 µM |  |  |  |  |  |  |  | 
CC(C)=CCc1c(O)cc2oc(-c3ccc(O)cc3O)cc(=O)c2c1O |  | 53.7 µM | 62.6 µM | 87.8 µM | > 100 µM | > 100 µM |  |  |  | 69.1 µM | > 76.2 µM | 67.2 µM |  |  |  |  |  |  |  | 
CCc1nc2c(c(N(C)C)c1C(=O)OC)CCc1ccccc1-2 |  | > 100 µM | 41.8 µM | > 100 µM | > 100 µM | > 100 µM |  |  |  | > 100 µM | > 100 µM | 87.8 µM |  |  |  |  |  |  |  | 
CC(C)(C)N=NC(C)(C)N=C=O | > 100 µM | > 100 µM | > 100 µM | > 100 µM | > 100 µM | > 100 µM | > 100 µM | > 100 µM | > 100 µM | > 100 µM |  |  |  |  |  |  |  |  |  | 
CCOC(=O)[C@@H](Cc1ccc(CCl)cc1)NC(C)=O |  | 37.7 µM | 43.9 µM | 86.2 µM | 43.2 µM | 54.9 µM |  |  |  | 59 µM | > 100 µM | 81.6 µM |  |  |  |  |  |  |  | 
Clc1ccc(/C(=C/c2ccccc2)Cn2ccnc2)cc1 |  | > 100 µM | 38.5 µM | > 100 µM | > 100 µM | > 100 µM |  |  |  | > 100 µM | 96.2 µM | > 100 µM |  |  |  |  |  |  |  | 
c1cncc(CSc2nc3ccccc3nc2-c2cccs2)c1 | > 100 µM | > 100 µM | > 100 µM | > 100 µM | > 100 µM | > 100 µM | > 100 µM |  | > 100 µM | > 100 µM |  |  |  |  |  |  |  |  |  | 
C[As+](C)(c1ccc(Br)c([N+](=O)[O-])c1)c1ccc(Br)c([N+](=O)[O-])c1.O=[N+]([O-])O |  | 34.1 µM | > 100 µM | 76.8 µM | > 100 µM | > 100 µM |  |  |  | > 100 µM | > 100 µM | > 100 µM |  |  |  |  |  |  |  | 
OC(CC(O)(C(F)(F)Cl)C(F)(F)Cl)c1ccccc1 (stereo unspecified) |  | > 10 µM | > 10 µM | > 10 µM | > 10 µM | > 10 µM |  |  |  | > 10 µM | > 10 µM | > 10 µM |  |  |  |  |  |  |  | 
O=c1c2c3c(sc2nc2n1N=C(c1ccc(Br)cc1)CS2)CCCC3 |  | > 100 µM | > 100 µM | > 100 µM | > 100 µM | > 100 µM |  |  |  | > 100 µM | > 100 µM | > 100 µM |  |  |  |  |  |  |  | 
C[C@H]1[C@H](C)CC[C@]2(C(=O)OC3OC(CO)C(O)C(O)C3O)CC[C@]3(C)C(=CC[C@@H]4[C@@]5(C)C[C@@H](O)[C@@H]6OC(=O)c7cc(O)c(O)c(O)c7-c7c(cc(O)c(O)c7O)C(=O)OC[C@@]6(CO)[C@@H]5CC[C@]43C)[C@H]12 (stereo partly specified) |  | > 100 µM | > 100 µM | > 100 µM | > 100 µM | > 100 µM |  |  |  | > 100 µM | > 100 µM | 37 µM |  |  |  |  |  |  |  | 
CC1(C)N=C(N)N=C(N)N1c1cccc(Cl)c1 |  | > 100 µM | > 100 µM | > 100 µM | > 100 µM | > 100 µM |  |  |  | > 100 µM | > 100 µM | > 100 µM |  |  |  |  |  |  |  | 
CCN(CC)CCCCNc1c2ccc(Cl)cc2nc2ccc(OC)cc12 |  | 3.65 µM | 1.32 µM | 3.2 µM |  | 3.98 µM |  |  |  | 2.39 µM | 3.77 µM | 2.11 µM | 1.54 µM | 1.85 µM | 0.24 µM | 0.478 µM | 1.71 µM | 0.287 µM | 0.608 µM | 1.09 µM
CC(=N/NC(=S)N(C)C)/C(=N\NC(=S)N(C)C)c1ccccc1 |  | 3.5 µM | 3.33 µM | 4.03 µM | 3.91 µM | 3.56 µM |  |  |  | 4.62 µM | 4.63 µM | > 23.8 µM |  |  |  |  |  |  |  | 
NC(=O)c1ccc[n+](C2=C([O-])c3ccccc3C(=O)/C2=N\S(=O)(=O)c2ccccc2)c1 |  | 20.1 µM | 30.2 µM | 30.2 µM | 47.9 µM | 27.8 µM |  |  |  | 28.1 µM | 28.8 µM | 34.5 µM |  |  |  |  |  |  |  | 
COc1ccc(C2C=C(c3ccc(C)cc3)N(c3ccc(OC)cc3[N+](=O)[O-])C3C(=O)OC(=O)C23)c(OC)c1 (stereo unspecified) |  | 38.5 µM | > 100 µM | > 100 µM | > 100 µM | > 100 µM |  |  |  | 75.9 µM | > 100 µM | > 100 µM |  |  |  |  |  |  |  | 
CN(C)CCCNC(=O)N/N=C/c1ccccc1 | > 100 µM | > 100 µM |  | > 100 µM | > 100 µM |  | > 100 µM |  | > 100 µM | > 100 µM |  |  |  |  |  |  |  |  |  | 
